Assay results published in PubChem BioAssay (NCI).
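Method: 48-hour compound exposure of cells in 96-well plates, five concentrations, linear interpolation of endpoints. The concentration for full growth arrest is given as TGI.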

Experiments:
Assay in all cases: NCI-60 cell line screen, 48 h
[1] = tested on: NCI-H23 lung
[2] = tested on: HCT-15 colon
[3] = tested on: HCC-2998 colon
[4] = tested on: UACC-257 melanoma
[5] = tested on: SK-MEL-5 melanoma
[6] = tested on: KM12 colon
[7] = tested on: MDA-MB-231 breast
[8] = tested on: UACC-62 melanoma
[9] = tested on: SF-268 CNS
[10] = tested on: HS 578T breast
[11] = tested on: HCT-116 colon
[12] = tested on: HOP-62 NSCLC

SMILES | TGI [1] [µM] | TGI [2] [µM] | TGI [3] [µM] | TGI [4] [µM] | TGI [5] [µM] | TGI [6] [µM] | TGI [7] [µM] | TGI [8] [µM] | TGI [9] [µM] | TGI [10] [µM] | TGI [11] [µM] | TGI [12] [µM]
CC(C)(C)C1=CC(C)(n2[nH]c(=O)n(-c3ccccc3)c2=O)C=C(C(C)(C)C)C1=O | > 100 | > 100 | > 100 | > 100 | > 100 | > 100 | > 100 | > 100 | > 100 | > 100 | > 100 | 
CCc1c(C)c(C#N)c(=S)n(C2OC(COC(C)=O)C(OC(C)=O)C(OC(C)=O)C2OC(C)=O)c1-c1ccccc1 (configuration not stated) | > 31.6 | > 31.6 | > 31.6 | > 31.6 | > 31.6 | > 31.6 | > 31.6 |  | > 31.6 | 68.2 | > 31.6 | > 31.6
CCOC(=O)C(C(=O)OCC)=C1NC2(c3ccccc3Nc3ccccc32)C(C#N)S1 (configuration not stated) | 16 | 19.6 | 17.1 | 36 | 21.6 | 19.2 |  | 22 | 39 | 46.3 | 27.6 | 27
CCOC(=O)NNC(=O)NCc1cccc(CNC(=O)NNC(=O)OCC)c1 | > 100 | > 100 | > 100 | > 100 | > 100 | > 100 | > 100 | > 100 | > 100 | > 100 | > 100 | 
[O-]c1c2cc(-[n+]3c(-c4ccccc4)cc(-c4ccccc4)cc3-c3ccccc3)cc1COCCOCCOCCOCCOC2 | > 100 | > 100 | > 100 | 82.5 |  | 50 |  | 44.2 | 93.5 |  | > 100 | > 100
C/C=C/C#CC#C/C=C/C=C/C(O)CCO (configuration not stated) | > 23.1 | > 23.1 | > 23.1 | > 23.1 | > 23.1 | > 23.1 |  | > 23.1 | > 23.1 |  | > 23.1 | > 23.1
COC(=O)c1ccc(S)c(S(=O)(=O)Nc2n[nH]c(N)n2)c1 | > 100 | > 100 |  | > 100 | > 100 | > 100 | > 100 | > 100 |  | > 100 | > 100 | 
O=c1c2cc(S(=O)(=O)O)ccc2nc(COc2ccc(Oc3ccc(Cl)cc3Cl)cc2)n1-c1ccc(Oc2ccc(Cl)cc2)cc1Cl | 43 | 43.8 |  | 57.4 | 34.6 | > 100 |  | 34.7 | 26 | 42.3 | 58.4 | 46
CC1=C(O)C2=C(C(=O)C1=O)[C@@H](C)CC[C@@H]2[C@@H](C)C/C=C/C(C)(C)O | > 100 | > 100 |  | > 100 | > 100 | > 100 | > 100 | > 100 | > 100 | > 100 | > 100 | > 100
O=C(/C=C/c1ccc(Oc2cc(C(=O)/C=C/c3ccc(O)cc3)c(O)cc2O)cc1)c1ccc(O)cc1O | 28.6 | 19.4 |  | 28.4 | 17.1 | 6.64 | > 100 | 13 | 28.3 | > 100 | 4.57 | 15.5
CCOP1(=O)C=C(C)C(Cl)=C(C)C1 (configuration not stated) | 46.2 | 73.7 | > 100 | 88.7 | > 100 | 34.5 |  | 33.9 | > 100 |  | 41.4 | > 100
O=c1[nH]c(=S)nc2nc3c4ccc[nH]c4c4ccccc4c3nc12 | > 100 | > 100 | > 100 | > 100 | > 100 | > 100 |  | > 100 | > 100 | > 100 | > 100 | > 100
O=C(CCC1C(=O)NC(=S)NC1=O)c1ccc2ccccc2c1 | > 100 | > 100 | > 100 | > 100 | > 100 | > 100 |  | > 100 | > 100 |  | > 100 | > 100
NS(=O)(=O)c1nnc(NS(=O)(=O)C(F)(F)F)s1 | > 100 | > 100 | > 100 |  |  | > 100 | > 100 | > 100 | > 100 |  | > 100 | > 100
CC(=O)C1=CN=C2C(=O)N(c3ccccc3)N(C)C12C (configuration not stated) | > 100 | > 100 | > 100 | > 100 | > 100 | 46.8 | > 100 | > 100 |  |  | > 100 | 
COc1ccc(OC)c(N(CN2C(=O)CCC2C(=O)O)C(C)=O)c1 (configuration not stated) | > 100 | > 100 |  | > 100 | > 100 | > 100 | > 100 | > 100 | > 100 | > 100 | > 100 | > 100
COc1ccc(OC)c(CNc2ccc(C(=O)O)cc2)c1 | > 100 | > 100 | > 100 | > 100 | > 100 | > 100 | > 100 | > 100 | > 100 | > 100 | > 100 | 
O=C(NC1CCN(Cc2ccccc2)CC1)c1ccc(I)cc1 | > 100 | > 100 |  | > 100 | > 100 | > 100 | > 100 | > 100 | > 100 | > 100 | > 100 | > 100
CCOC(=O)C1(F)S(=O)(=O)OCCOS1(=O)=O | > 100 | > 100 | > 100 | > 100 | > 100 | > 100 |  | > 100 | > 100 | > 100 | > 100 | > 100
NC1CC(=O)c2c1sc(Cl)c2Cl (configuration not stated) |  | > 100 | > 100 | > 100 | > 100 | > 100 | > 100 | > 100 | > 100 |  | > 100 | > 100
